Experimental data taken from patent publication US7579468B2, “Methods of modulating neurotrophin-mediated activity” (PainCeptor Pharma Corporation, priority 2005, dated 2009).
Entries after “also recorded” stand apart in the source; their conditions may differ.

Columns and labels:
PC12 (TrkA & p75) [1] = test system: T1, PC12 (TrkA & p75); assay: 125I-NGF binding displacement in PC12 cells; parameters: species or system rat; conditions: for PC12 (TrkA & p75) Single point (% max binding) Mean: PC12 cells; for NGF binding displacement, dose-response curve: PC12 cells expressing TrkA and p75, individual experiment
T1 construct: other: Concentration 25 μM; PC12 cells; other: Concentration 50 μM; other: PC12 cells; 125I-NGF ~0.11 nM; other: PC12 cells expressing TrkA and p75; individual experiment; fused on or other part: 125I label on NGF
Experimental: (§1) All cells were incubated at 37° C. in 5% CO2. PC12 cells were maintained in RPMI-1640 medium supplemented with 10% fetal bovine serum (FBS). A875 human melanoma cells were maintained in DMEM with 10% FBS. HEK 293 cells were stably transfected with human TrkA plasmid (see below) and maintained in DMEM with 10% FBS and G418 (600 μg/mL) for selection.
(§2) NGF binding was evaluated using methods familiar to those who are skilled in the art. Briefly, cells expressing one or both NGF receptors (PC12: TrkA+p75; A875: p75 alone; HEK_TrkA: TrkA alone) were harvested by replacing the medium with calcium-magnesium free balanced salt (Grey's) solution and incubating at 37° C. for 15 min. For NGF binding, cells were resuspended at a concentration of 2×10^6 cells/mL in HEPES-Krebs-Ringer (HKR) buffer (10 mM HEPES; 125 mM NaCl; 4.8 mM KCl; 1.3 mM CaCl2; 1.2 mM MgSO4; 1.2 mM KH2PO4; 1 mg/ml BSA; 1 mg/ml glucose; pH 7.4) and exposed to ^125I-NGF (˜0.11 nM) in the presence or absence of varying concentrations of the compound. Non-specific binding was determined for reference by incubating ^125I-NGF with an excess of non-radioactive NGF in the absence of compound. Following a two-hour incubation period at 4° C., ^125I-NGF bound to the cells was quantified in a gamma radiation counter following separation from unbound NGF by filtration or centrifugation through glycerol (10% in HKR). Inhibition of binding was calculated as a percent of the specific binding (calculated as the differential between ^125I-NGF binding in the absence and presence of an excess of non-radioactive NGF without compound). Dose-response inhibition curves were typically generated with seven concentrations of a given compound, with three replicates for each concentration. For most compounds, multiple dose-response curves were generated.

Mice = assay: Writhing Test (acetic acid abdominal contraction test); assay type: in vivo, mouse; conditions: 100 mg/kg i.p., 30 minutes following acetic acid, vehicle 57±1
Experimental: The acetic acid abdominal contraction test (Martinez et al., Pain 1999; 81: 179) was used to determine the efficacy of different compounds in a model of acute visceral chemical nociception. […] Compound or vehicle was administered (i.p. or s.c.) 15-45 minutes prior to the acetic acid injection. Each episode of writhing is characterized by a lengthwise stretching of the torso with a concomitant arching of the back.
Statistical analysis was performed using Prism™ 4.01 software package (GraphPad, San Diego, Calif., USA). The difference in response levels between treatment groups and control vehicle group was analyzed using an ANOVA followed by Bonferroni's method for post-hoc pair-wise comparisons. A p value <0.05 was considered to be significant.

PC12 cells = assay: NGF-induced neurite outgrowth in PC12 cells; assay type: cell-based, rat; conditions: 4 days of exposure to NGF
Experimental: This assay was run as a further functional marker of NGF antagonism and takes advantage of the differentiation of PC12 cells (neurite outgrowth) induced by NGF. Cultures of PC12 cells were grown on Terasaki plates pre-coated with poly-D-lysine. Cells were exposed to NGF (1-50 (preferably 5) ng/ml) to induce neurite outgrowth as described elsewhere [L A Greene & A S Tischler, Establishment of a noradrenergic clonal line of rat adrenal pheochromocytoma cells which respond to nerve growth factor, Proc Natl Acad Sci USA. 1976 July; 73(7): 2424-2428]. In addition to NGF, cells were exposed to varying concentration of the compounds or vehicle. Following 4 days of exposure to NGF in the presence or absence of compound, neurite outgrowth was quantified. A neurite was scored if its caliber from origin to terminal was approximately the same and the length was equal to or greater than 1.5 the cell body diameter. The number of neurite bearing cells per total number of viable cells was calculated for each condition; the number of cells with neurites in the presence of NGF (without compound exposure) was considered to represent maximal (100%) outgrowth, to which the inhibitory effect of compounds of the invention on NGF-induced outgrowth was compared.

Male Sprague-Dawley rats = assay: Spared Nerve Injury (SNI) model of neuropathic pain; assay type: in vivo, rat; conditions: Von Frey filaments, 90 min post-treatment, Compound 11 3 and 10 mg/kg i.p., Compound 107 20 mg/kg i.p.
Excerpt: The Spared Nerve Injury (SNI) model (Decosterd et al., Pain 2000; 87: 149) was used to induce chronic neuropathic pain. Male Sprague-Dawley rats were anesthetized with isoflurane, and two of the three terminal branches of the sciatic nerve (tibial and common peroneal nerves) were transected, leaving the remaining sural nerve intact. Animals develop thermal and mechanical hyperalgesia and allodynia, as well as spontaneous pain or dysesthesia that last month after the nerve injury.
Mechanical allodynia testing: Pre- and post-injury baselines as well as post-treatment values (vehicle or compound-treated animals) for mechanical allodynia were evaluated using Von Frey filaments (Stoelting, Wood Dale, Ill., USA) with varying stiffness. […] The mean and standard error of the mean (SEM) were determined for each paw in each treatment group (ipsilateral/injured paw and contralateral/non-injured paw). […] Effects of compounds were evaluated two weeks after the injury. Compound or vehicle was administered (i.p. or s.c.) and effects on mechanical allodynia were measured at different time points after dosing (e.g., 30, 60 and 90 min.).
Data analysis: Statistical analyses were conducted using Prism™ 4.01 (GraphPad, San Diego, Calif., USA). Mechanical hypersensitivity of the injured paw was determined by comparing contralateral to ipsilateral paw values within the vehicle group at each time point. […]

[2] = test system: HEK_TrkA: TrkA alone (human TrkA); assay: 125I-NGF binding displacement in HEK_TrkA cells; conditions: individual experiment
Experimental: as §1
Expression of human TrkA in HEK cells was achieved by transfecting the cells with the TrkA expression vector using Lipofectamine (Invitrogen) reagent. HEK cells were plated in 100 mm Petri dishes at a concentration of 10^6 cells per dish. The next day, a solution of DNA diluted in 1 mL OptiMEM (Invitrogen) per dish was prepared and incubated for 15 min at room temperature. […]
NGF binding was evaluated using methods familiar to those who are skilled in the art. […] Non-specific binding was determined for reference by incubating ^125I-NGF with an excess of non-radioactive NGF in the absence of compound. Following a two-hour incubation period at 4° C., ^125I-NGF bound to the cells was quantified in a gamma radiation counter following separation from unbound NGF by filtration or centrifugation through glycerol (10% in HKR). Inhibition of binding was calculated as a percent of the specific binding (calculated as the differential between ^125I-NGF binding in the absence and presence of an excess of non-radioactive NGF without compound). […]

A875: p75 alone = assay: 125I-NGF binding displacement in A875 cells; parameters: species or system human; conditions: A875 cells expressing p75; individual experiment
Experimental: as §1, §2

PC12 (TrkA & p75) [3] = test system: T2, PC12 (TrkA & p75); assay: 125I-NGF binding displacement in PC12 cells; parameters: species or system rat; conditions: PC12, A875 and HEK_TrkA cells taken together
T2 construct: other: PC12, A875 an; fused on or other part: 125I label on NGF
Experimental: as §1, §2

NNC(=O)NN1C(=O)c2cc(S(=O)(=O)[O-])cc3c(N)c(S(=O)(=O)[O-])cc(c23)C1=O.[K+].[K+] [Compound 52, 6-Amino-1,3-dioxo-2-amino-ureido-2,3-dihydro-1H-benzo[de]isoquinoline-5,8-disulfonic acid-di-potassium salt]
PC12 (TrkA & p75) Single point (% max binding) Mean (PC12 (TrkA & p75) [1]; Concentration 50 μM): * (* >50)

O=C(O)CCCN1C(=O)c2cccc3cc([N+](=O)[O-])cc(c23)C1=O [Compound 63, 4-(5-Nitro-1,3-dioxo-1H,3H-benzo[de]isoquinolin-2-yl)-butyric acid]
Number of abdominal contractions (writhing) (Mice): 9±3

O=C(O)CCCN1C(=O)c2cc(Br)cc3cc([N+](=O)[O-])cc(c23)C1=O [Compound 89, 4-(5-Bromo-8-nitro-1,3-dioxo-1H,3H-benzo[de]isoquinolin-2-yl)-butyric acid]
PC12 (TrkA & p75) Single point (% max binding) Mean (PC12 (TrkA & p75) [1]; Concentration 50 μM): ** (30 < ** <50)

NC(=O)c1cc2c3c(cccc3c1)C(=O)N(CCCC(=O)O)C2=O [Compound 95, 4-(5-Carbamoyl-1,3-dioxo-1H,3H-benzo[de]isoquinolin-2-yl)-butyric acid]
Inhibition of NGF-induced neurite outgrowth (PC12 cells): effectively inhibits neurite outgrowth induced by NGF

O=C(O)CCCN1C(=O)c2cccc3c(C(=O)c4ccccc4)ccc(c23)C1=O [Compound 99, 4-(6-Benzoyl-1,3-dioxo-1H,3H-benzo[de]isoquinolin-2-yl)-butyric acid]
PC12 (TrkA & p75) Single point (% max binding) Mean (PC12 (TrkA & p75) [1]; Concentration 25 μM): *** (* < *** <30)

O=C(O)CCCN1C(=O)c2cccc3c(C(=O)O)ccc(c23)C1=O [Compound 100, 2-(3-Carboxy-propyl)-1,3-dioxo-2,3-dihydro-1H-benzo[de]isoquinoline-6-carboxylic acid]
PC12 (TrkA & p75) Single point (% max binding) Mean (PC12 (TrkA & p75) [1]; Concentration 25 μM): *** (* < *** <30)

O=C1Nc2ccc([N+](=O)[O-])c3cccc1c23 [Compound 103, 6-Nitro-1H-benzo[cd]indol-2-one]
PC12 (TrkA & p75) Single point (% max binding) Mean (PC12 (TrkA & p75) [1]; Concentration 25 μM): * (* >50)

O=C(O)CCCN1C(=O)c2cccc3c(Cl)ccc(c23)C1=O [Compound 104, 4-(6-Chloro-1,3-dioxo-1H,3H-benzo[de]isoquinolin-2-yl)-butyric acid]
PC12 (TrkA & p75) Single point (% max binding) Mean (PC12 (TrkA & p75) [1]; Concentration 25 μM): ** (30 < ** <50)

CC(=O)Nc1cc2c3c(cc(NC(C)=O)cc3c1)C(=O)N(CCCS(=O)(=O)O)C2=O [Compound 107, 3-(5,8-Bis-acetylamino-1,3-dioxo-1H,3H-benzo[de]isoquinolin-2-yl)-propane-1-sulfonic acid]
Effect on mechanical allodynia in the SNI model (Male Sprague-Dawley rats): significant dose-dependent reversal of the mechanical allodynia; also recorded: significant antinociceptive effects
NGF binding displacement, dose-response curve [2]: effectively blocks NGF binding to cells expressing TrkA
NGF binding displacement, dose-response curve (A875: p75 alone): effectively blocks NGF binding to cells expressing p75
NGF binding displacement, dose-response curve (PC12 (TrkA & p75) [1]): effectively blocks NGF binding to cells expressing TrkA and p75
Block of NGF binding to TrkA and/or p75 (summary of FIGS. 1B, 2A, 2B, 4A, 4B, 6A, 6B, 7A, 8A, 8B) (PC12 (TrkA & p75) [3]): effectively block NGF binding to TrkA and/or p75
Inhibition of NGF-induced neurite outgrowth (PC12 cells): effectively inhibits neurite outgrowth induced by NGF

CN(C)S(=O)(=O)c1ccc2c3c(cccc13)C(=O)N(CCCC(=O)O)C2=O [Compound 112, 4-(6-Dimethylsulfamoyl-1,3-dioxo-1H,3H-benzo[de]isoquinolin-2-yl)-butyric acid]
PC12 (TrkA & p75) Single point (% max binding) Mean (PC12 (TrkA & p75) [1]; Concentration 50 μM): *** (* < *** <30)

O=C(O)CCCN1C(=O)c2cccc3c(S(=O)(=O)N4CCOCC4)ccc(c23)C1=O [Compound 113, 4-[6-(Morpholine-4-sulfonyl)-1,3-dioxo-1H,3H-benzo[de]isoquinolin-2-yl]-butyric acid]
PC12 (TrkA & p75) Single point (% max binding) Mean (PC12 (TrkA & p75) [1]; Concentration 50 μM): ** (30 < ** <50)

CN(C)S(=O)(=O)c1cc2c3c(cccc3c1)C(=O)N(CCCC(=O)O)C2=O [Compound 114, 4-(5-Dimethylsulfamoyl-1,3-dioxo-1H,3H-benzo[de]isoquinolin-2-yl)-butyric acid]
PC12 (TrkA & p75) Single point (% max binding) Mean (PC12 (TrkA & p75) [1]; Concentration 50 μM): ** (30 < ** <50)

N#Cc1cc2c3c(cccc3c1)C(=O)N(CCCC(=O)O)C2=O [Compound 124, 4-(5-Cyano-1,3-dioxo-1H,3H-benzo[de]isoquinolin-2-yl)-butyric acid]
NGF binding displacement, dose-response curve (A875: p75 alone): effectively blocks NGF binding to cells expressing p75
NGF binding displacement, dose-response curve (PC12 (TrkA & p75) [1]): effectively blocks NGF binding to cells expressing TrkA and p75
Block of NGF binding to TrkA and/or p75 (summary of FIGS. 1B, 2A, 2B, 4A, 4B, 6A, 6B, 7A, 8A, 8B) (PC12 (TrkA & p75) [3]): effectively block NGF binding to TrkA and/or p75
Inhibition of NGF-induced neurite outgrowth (PC12 cells): effectively inhibit neurite outgrowth induced by NGF
